Tests used:
HIPK4 [1] = biological target: T1, HIPK4 (Homo sapiens, UniProt Q8NE63); test: HIPK4 kinase inhibition by VIB-MDA compounds (FIG. 5, 6); type: biochemical; details: for potency and specificity for HIPK4: Table 1, FIG. 5
T1 sequence (Q8NE63 1-616): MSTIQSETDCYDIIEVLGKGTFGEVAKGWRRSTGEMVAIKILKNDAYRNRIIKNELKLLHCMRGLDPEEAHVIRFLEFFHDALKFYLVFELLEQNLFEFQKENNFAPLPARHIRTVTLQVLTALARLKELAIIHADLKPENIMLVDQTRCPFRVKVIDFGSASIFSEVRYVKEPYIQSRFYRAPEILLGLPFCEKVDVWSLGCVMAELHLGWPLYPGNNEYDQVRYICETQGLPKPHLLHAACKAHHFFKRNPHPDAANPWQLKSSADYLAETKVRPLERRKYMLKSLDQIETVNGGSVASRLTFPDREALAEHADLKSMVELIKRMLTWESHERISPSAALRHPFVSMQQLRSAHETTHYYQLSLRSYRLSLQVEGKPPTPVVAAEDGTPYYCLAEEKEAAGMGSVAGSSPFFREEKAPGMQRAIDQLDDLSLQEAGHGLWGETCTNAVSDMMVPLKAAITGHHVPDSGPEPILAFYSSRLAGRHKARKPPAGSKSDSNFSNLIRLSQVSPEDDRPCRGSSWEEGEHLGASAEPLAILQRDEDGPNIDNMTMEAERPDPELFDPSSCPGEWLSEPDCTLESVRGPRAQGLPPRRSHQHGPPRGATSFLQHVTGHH

HIPK4 [2] = biological target: T1, HIPK4; test: Western blot of HIPK4 protein level with VIB-MDA compounds (FIG. 9); type: cell-based; parameters: endogenous in cells; context is GI101A and derivative cell lines
Description: (§1) Briefly, desired cells were harvested and lysed. The protein concentration in the lysates was quantified using the Bradford method with bovine serum albumin as standard. An equal amount of protein of 49 μg was separated by electrophoresis on SDS-polyacrylamide gels and transferred to PVDF membranes. After blocking with 5% nonfat milk, the membranes were incubated with the primary antibodies overnight at the following dilution: HIPK4 (1:500) and β-actin (1:20000). Subsequently, the membranes were incubated with appropriate secondary antibodies. The immunoreactive bands were visualized using enhanced chemiluminescence, as recommended by the manufacturer.

HIPK and FAK/pFAK = test: Western blot of HIPK4-overexpressing triple negative breast cancer cells (FIG. 11B); type: cell-based, human
Description: (§2) Cells were plated into 6-well plate and grown for 1-2 days until reaching 70-80% confluence. Transfection of cells with HIPK4 cDNA was performed utilizing FuGENE® HD Transfection reagent. An amount of 2.5 μg of DNA and 7.5 μL of FuGENE® HD reagent were separately pipeted into 140 μL opti-MEM medium; incubate the FuGENE® HD transfection reagent/DNA mixture for 10-15 minutes at room temperature. Then the mixture was applied onto cells for 7 h in cell culture incubator. The transfection was stopped by replacing medium with complete medium. After 48 h, cells were harvest for further analysis.
as §1

[3] = tested on: MDA-MB-231 cells overexpressing HIPK4; test: Transwell migration of HIPK4-overexpressing MDA-MB-231 cells (FIG. 11A); type: cell-based, human; details: MDA-MB-231 cells overexpressing HIPK4, FIG. 11A
Description: The in vitro migration and invasion assay was carried out using transwell chamber. Briefly, 0.2-2.0×10^5 cells/ml cells were suspended in serum-free medium with 5% bovine serum albumin and then were placed in the upper compartment, and medium with 5% fetal bovine serum was added in the lower compartment. Following incubation in cell culture incubator for 6-32 h, non-migratory and noninvasive cells on the upper surface were gently removed by a cotton swab. The cells on the bottom of membrane were stained with cell stain solution at room temperature for 10 min. Images of the invading cells were taken with at least three individual fields per chamber by a fluorescent inverted microscope (Olympus IX81 Motorized Inverted Microscope, Japan). The chambers were transferred to an empty well, and 200 μL of Extraction Solution was added to each well. After incubating 10 minutes on an orbital shaker, 100 μL of solution was transferred from each well to a 96-well microtiter plate for measurement under OD 560 nm in a plate reader.
as §2

Tyro3 = biological target: T2, Tyro3 (Homo sapiens, UniProt Q06418); test: Tyro3 kinase inhibition (FIG. 5); type: biochemical
T2 sequence (Q06418 41-890): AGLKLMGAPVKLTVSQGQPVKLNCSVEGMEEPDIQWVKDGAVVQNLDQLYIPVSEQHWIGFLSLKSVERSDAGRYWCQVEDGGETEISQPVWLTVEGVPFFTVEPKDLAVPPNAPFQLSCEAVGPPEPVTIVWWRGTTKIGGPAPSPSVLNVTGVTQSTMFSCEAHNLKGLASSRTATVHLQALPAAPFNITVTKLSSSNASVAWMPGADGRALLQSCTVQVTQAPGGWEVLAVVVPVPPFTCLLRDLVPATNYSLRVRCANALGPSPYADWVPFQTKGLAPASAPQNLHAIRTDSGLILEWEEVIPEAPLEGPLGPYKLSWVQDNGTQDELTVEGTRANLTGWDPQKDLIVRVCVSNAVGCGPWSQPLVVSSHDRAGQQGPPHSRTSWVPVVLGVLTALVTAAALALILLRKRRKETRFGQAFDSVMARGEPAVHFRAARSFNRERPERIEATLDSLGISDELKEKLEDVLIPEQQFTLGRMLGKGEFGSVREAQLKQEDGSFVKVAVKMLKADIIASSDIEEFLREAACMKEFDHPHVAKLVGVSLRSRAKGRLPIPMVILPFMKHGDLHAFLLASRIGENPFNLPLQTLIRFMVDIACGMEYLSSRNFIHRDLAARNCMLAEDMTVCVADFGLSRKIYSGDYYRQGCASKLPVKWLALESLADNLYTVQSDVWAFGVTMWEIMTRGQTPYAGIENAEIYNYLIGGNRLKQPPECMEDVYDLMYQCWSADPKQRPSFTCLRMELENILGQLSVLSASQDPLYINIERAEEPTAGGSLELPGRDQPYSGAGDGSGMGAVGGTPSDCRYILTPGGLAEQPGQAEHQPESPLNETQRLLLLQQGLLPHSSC

Transport into cells = type: cell-based
[4] = biological target: Breast Tumor Kinase (BRK) (Homo sapiens, UniProt Q13882); test: Breast Tumor Kinase inhibition (FIG. 5); type: biochemical
Sequence of Breast Tumor Kinase (BRK) (Q13882 whole entry, species assumed): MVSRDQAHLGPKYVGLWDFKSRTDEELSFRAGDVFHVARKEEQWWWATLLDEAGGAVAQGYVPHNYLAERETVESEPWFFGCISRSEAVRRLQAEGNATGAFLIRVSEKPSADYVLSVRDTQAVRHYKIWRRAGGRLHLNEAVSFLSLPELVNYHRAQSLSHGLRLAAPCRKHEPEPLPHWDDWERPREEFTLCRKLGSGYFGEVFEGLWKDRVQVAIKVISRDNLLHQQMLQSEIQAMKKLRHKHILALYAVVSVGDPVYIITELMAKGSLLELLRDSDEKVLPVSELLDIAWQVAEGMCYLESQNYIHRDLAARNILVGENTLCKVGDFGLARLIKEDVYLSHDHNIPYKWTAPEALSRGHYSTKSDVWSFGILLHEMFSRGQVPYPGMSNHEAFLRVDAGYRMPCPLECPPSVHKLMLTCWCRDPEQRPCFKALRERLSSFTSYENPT

DDR2 (Tyro10) = biological target: T3, DDR2 (Tyro10) (Homo sapiens, UniProt Q16832); test: DDR2 kinase inhibition by VIB-MDA compounds (FIG. 5, 6B); type: biochemical
T3 sequence (Q16832 22-855): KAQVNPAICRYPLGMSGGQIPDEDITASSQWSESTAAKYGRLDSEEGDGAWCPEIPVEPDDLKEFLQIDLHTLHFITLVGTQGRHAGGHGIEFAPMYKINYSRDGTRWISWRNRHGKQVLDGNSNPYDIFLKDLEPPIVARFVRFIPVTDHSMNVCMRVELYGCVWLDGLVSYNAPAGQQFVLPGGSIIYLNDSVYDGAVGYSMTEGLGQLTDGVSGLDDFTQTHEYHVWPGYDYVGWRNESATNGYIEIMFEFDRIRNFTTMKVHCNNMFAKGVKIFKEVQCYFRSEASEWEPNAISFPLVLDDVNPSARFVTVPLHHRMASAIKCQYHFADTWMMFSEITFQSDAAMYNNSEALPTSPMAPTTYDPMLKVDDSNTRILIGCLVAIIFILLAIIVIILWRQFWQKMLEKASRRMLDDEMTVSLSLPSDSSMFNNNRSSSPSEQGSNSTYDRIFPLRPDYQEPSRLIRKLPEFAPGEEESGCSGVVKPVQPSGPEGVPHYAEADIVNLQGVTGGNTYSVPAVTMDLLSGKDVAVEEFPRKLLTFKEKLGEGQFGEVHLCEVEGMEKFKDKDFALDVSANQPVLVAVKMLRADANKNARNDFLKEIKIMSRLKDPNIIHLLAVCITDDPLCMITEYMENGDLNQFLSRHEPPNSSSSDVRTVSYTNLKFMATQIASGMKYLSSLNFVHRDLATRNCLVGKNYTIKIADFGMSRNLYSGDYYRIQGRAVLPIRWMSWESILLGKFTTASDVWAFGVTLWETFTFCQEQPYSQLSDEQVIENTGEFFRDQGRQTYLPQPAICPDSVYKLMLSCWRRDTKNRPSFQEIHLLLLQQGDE

inhibition of HIPK4 expression (HIPK4 [2]) | potency for Tyro3 relative to the other VIB-MDA compounds (Tyro3) | potency for HIPK4 relative to the other VIB-MDA compounds (HIPK4 [1]; FIG. 5) | blocking HIPK4 kinase activity (HIPK4 [1]; FIG. 6) | IC50 (HIPK4 [1]; FIG. 6B) | specificity for HIPK4 compared to Sorafenib (HIPK4 [1]; kinase inhibition profile, FIG. 6A) | transport into cells (Transport into cells) | potency for BRK relative to the other VIB-MDA compounds [4] | potency for DDR2 relative to the other VIB-MDA compounds (DDR2 (Tyro10); FIG. 5) | IC50 (DDR2 (Tyro10); FIG. 6B, second most inhibited kinase) | Compound | potency and specificity for HIPK4 (HIPK4 [1]) | expression of HIPK and FAK/pFAK (HIPK and FAK/pFAK) | migration from HIPK-overexpression [3]
Selective inhibition | – | – | – | – | – | – | – | – | – | CNC(=O)c1cc(Oc2ccc(NC(=O)c3nc(SC)[nH]c3-c3ccc(F)cc3)cc2)ccn1 [VIB-MDA-001] | extremely potent and highly specific for HIPK4 | significantly inhibit | significantly inhibit
Selective inhibition | highest potency | highest potency | high efficacy | 15 nM | greatly increased specificity | excellent transport into cells | highest potency | highest potency | 100 nM | CNC(=O)c1cc(Oc2ccc(NC(=O)c3nc(SC)oc3-c3ccc(F)cc3)cc2)ccn1 [VIB-MDA-002] | extremely potent and highly specific for HIPK4 | significantly inhibit | significantly inhibit
Selective inhibition | – | – | – | – | – | – | – | – | – | CNC(=O)c1cc(Oc2ccc(NC(=O)c3nc(S(C)(=O)=O)sc3-c3ccc(F)cc3)cc2)ccn1 [VIB-MDA-003] | extremely potent and highly specific for HIPK4 | significantly inhibit | significantly inhibit
